Experimental data published in publication PMC11785708, “Design and synthesis of new quinazolinone derivatives: investigation of antimicrobial and biofilm inhibition effects” (Molecular Diversity, 2024).
≈ marks a conversion by molar mass, not a printed value. Where “and” joins values, the source holds several entries; their conditions need not be identical. Equal entries are not always repeated.

Assays:
S. aureus ATCC 6538 [1] = assay: Agar well diffusion, S. aureus; type: cell-based; conditions: Staphylococcus aureus, ATCC6538; 100 μl of test compound 20 mg/ml in DMF; ciprofloxacin and fluconazole 30 μg/ml; 24 h; mean ± SD; read-out: diameters of inhibition zone, S. aureus ATCC 6538
Method: (§1) The antimicrobial activity was tested against Gram positive bacteria: Bacillus cereus (B. cereus ATCC 6629), Bacillus subtilis (B. subtilis ATCC 6633), Staphylococcus aureus (S. aureus ATCC 6538), Gram negative bacteria: Klebsiella pneumoniae (K. pneumoniae ATCC 13883), Pseudomonas aeruginosa (P. aeruginosa ATCC 27953) and Candida albicans (C. albicans ATCC 10231). Glycerol stocks were thawed upon need and propagated into nutrient broth at 37 °C. The antibacterial activity of the compounds 9-32 was carried out in vitro using the agar well diffusion method, originally reported by […] and Bauer and coworkers and described by the National Committee for Clinical Laboratory Standards (NCCLS). Bacterial strains, adjusted at […] (equivalent to 0.5 McFarland), were used to inoculate nutrient agar plates. 9-mm diameter wells were punched into the solidified nutrient agar plates using sterile cork borer and 100 μl samples of the test compounds, dissolved in dimethyl formamide (DMF) at 20 mg/ml concentrations, were added and allowed to diffuse at 4 °C for 2 h. Subsequently, the plates were incubated overnight in an upright position at 37 °C. DMF was used as a negative control while ciprofloxacin and fluconazole (30 μg/ml) served as positive controls. After 24 h incubation, the diameters of the growth inhibition zones were recorded in mm. Data was expressed as mean ± standard deviation of three replicates.

B. subtilis ATCC 6633 [2] = assay: Agar well diffusion, B. subtilis; type: cell-based; conditions: Bacillus subtilis, ATCC6633; 100 μl of test compound 20 mg/ml in DMF; ciprofloxacin and fluconazole 30 μg/ml; 24 h; mean ± SD; read-out: diameters of inhibition zone, B. subtilis ATCC 6633
Method: as §1

B. cereus ATCC 6629 [3] = assay: Agar well diffusion, B. cereus; type: cell-based; conditions: Bacillus cereus, ATCC6629; 100 μl of test compound 20 mg/ml in DMF; ciprofloxacin and fluconazole 30 μg/ml; 24 h; mean ± SD; read-out: diameters of inhibition zone, B. cereus ATCC 6629
Method: as §1

K. pneumoniae ATCC 13883 [4] = assay: Agar well diffusion, K. pneumoniae; type: cell-based; conditions: Klebsiella pneumoniae, ATCC13883; 100 μl of test compound 20 mg/ml in DMF; ciprofloxacin and fluconazole 30 μg/ml; 24 h; mean ± SD; read-out: diameters of inhibition zone, K. pneumoniae ATCC 13883
Method: as §1

P. aeruginosa ATCC 27953 [5] = assay: Agar well diffusion, P. aeruginosa; type: cell-based; conditions: Pseudomonas aeruginosa, ATCC27953; 100 μl of test compound 20 mg/ml in DMF; ciprofloxacin and fluconazole 30 μg/ml; 24 h; mean ± SD; read-out: diameters of inhibition zone, P. aeruginosa ATCC 27953
Method: as §1

P. aeruginosa ATCC 27953 [6] = assay: Inhibition of exopolysaccharide (EPS) production; type: cell-based, Pseudomonas aeruginosa; conditions: means ± standard errors
Method: The inhibition of exopolysaccharide production by P. aeruginosa ATCC 27953 using quinazolinone derivatives was assessed according to total carbohydrate measurement.
P. aeruginosa’s biofilm was grown in the presence or absence of compounds (19, 20). Cells were incubated for 1 h with an equal volume of 5% (v/v) phenol and 5 × volume of concentrated sulfuric acid containing 0.2% (w/v) hydrazine sulphate then centrifuged at 10,000 g for 10 min (Z 326 K, HERMLE Labortechnik GmbH, Wehingen, Germany). The optical density of the supernatant was measured at 490 nm and the reduction in EPS was calculated as follows: EPSquantification%=OD490ofcontrol-OD490oftest/OD490ofcontrol×100

[7] = system: methicillin-resistant Staphylococcus aureus (MRSA); set-up: method as in PMID 32927027; conditions: read-out: biofilm formation inhibition IC50; cited from earlier work
S. aureus ATCC 6538 [8] = assay: MIC determination, S. aureus; type: cell-based, Staphylococcus aureus; conditions: Staphylococcus aureus, ATCC6538; serial dilutions, triplicate
Method: (§2) Serial dilutions of the test compounds were tested to determine their MIC against the most susceptible organisms. The MIC was expressed as the lowest concentration which inhibited the visible growth of the corresponding microorganism. All assays were performed in triplicate.

B. subtilis ATCC 6633 [9] = assay: MIC determination, B. subtilis; type: cell-based, Bacillus subtilis; conditions: serial dilutions, triplicate; for MIC: Bacillus subtilis, ATCC6633
Method: as §2

B. cereus ATCC 6629 [10] = assay: MIC determination, B. cereus; type: cell-based, Bacillus cereus; conditions: serial dilutions, triplicate
Method: as §2

K. pneumoniae ATCC 13883 [11] = assay: MIC determination, K. pneumoniae; type: cell-based, Klebsiella pneumoniae; conditions: serial dilutions, triplicate; for MIC: Klebsiella pneumoniae, ATCC13883
Method: as §2

P. aeruginosa ATCC 27953 [12] = assay: MIC determination, P. aeruginosa; type: cell-based, Pseudomonas aeruginosa; conditions: serial dilutions, triplicate
Method: as §2

Cell viability MTT assay = type: cell-based; conditions: human, BJ1 cells (normal skin fibroblasts)
Method: Cell viability testing at 5 mg/ml was carried out by colorimetric MTT assay on human normal cell line BJ1 (skin fibroblasts) to investigate the toxicity of the most broad spectrum derivatives 9, 15, 16, 18, 19, 20 and 29 (Table 3). The viability of the cells treated with the aforementioned derivatives was more than 87% at 5 mg/ml concentration. This gives indication that the compounds are tolerated and nontoxic for human cells, as the cytotoxic dose was higher than the therapeutic dose on most of microorganisms. It is worth mentioning that the safe limit of the percent of dead cells is not an absolute value and could be more than 10% as reported in previous studies.
The most broad spectrum compounds were evaluated for their cytotoxic activity against BJ1 cell line using colorimetric MTT [3-(4,5-dimethylthiazol-2-yl)-2,5-diphenyltetrazolium bromide] assay.

P. aeruginosa ATCC 27953 [13] = assay: Biofilm inhibition assay (crystal violet); type: cell-based; conditions: Pseudomonas aeruginosa, ATCC27953, P. aeruginosa ATCC 27953, 24 h
Method: Compounds with potential activity against P. aeruginosa ATCC 27953 were tested for the respective biofilm inhibition. The assay was carried out in microtiter plate setup using crystal violet (CV) staining of adherent cells, as modified from.
After 24 h cultivation, the supernatant and planktonic cells were discarded, wells were washed with phosphate buffered saline (PBS) and biofilms were stained with 0.1% CV. CV was subsequently washed then, solubilized with 33% (v/v) glacial acetic acid. The absorbance was measured at 540 nm using SPECTROstar® Nano microplate reader (BMG LABTECH GmbH, Germany). The experiments were performed in triplicate and independently repeated three times. GraphPad Prism 6.0 software was used to estimate the IC50 values, which correspond to […].

P. aeruginosa ATCC 27953 [14] = assay: Bacterial cell surface hydrophobicity (CSH) assay (MATH / BATH); type: cell-based, Pseudomonas aeruginosa; conditions: increasing concentrations, toluene partition (Fig. 6)
Method: The effect of the test compounds 19 and 20 on cell surface hydrophobicity was investigated via the microbial or bacterial adherence to hydrocarbons (MATH / BATH) assay. Exponentially growing culture of P. aeruginosa ATCC 27953 incubated with or without test compounds were centrifuged, the pellets were re-suspended and OD600 was measured using UV/Vis spectrophotometer (Jasco V-630, Tokyo, Japan) to give Ao. The re-suspended cells were vigorously mixed with toluene followed by measuring the OD600 of the aqueous phase to give At. The hydrophobicity index was calculated as follows: Hydrophobicityindex=Ao-At/Ao×100

[15] = system: Pseudomonas aeruginosa ATCC 27953; assay: Twitching motility assay; type: cell-based; conditions: starting from sub-MIC equal to half the MIC dose
Method: 5 µL of overnight-grown bacteria were stab-inoculated into Luria Bertani (LB) soft or quasi-solid plates containing 0.3% agar mixed with different concentrations of compounds 19, 20 and further incubated overnight in an upright position. The visible detectable distance of corrugated trails of twitching zones, away from the inoculation center at the petri dish-agar interface, was measured afterwards. The results were recorded as the average of several diameters’ measurements. DMF was used as a negative control. The experiments were performed in triplicate and represented as the mean of three measurements.

C. albicans ATCC 10231 [16] = assay: Agar well diffusion, C. albicans; type: cell-based; conditions: Candida albicans, ATCC10231; 100 μl of test compound 20 mg/ml in DMF; ciprofloxacin and fluconazole 30 μg/ml; 24 h; mean ± SD; read-out: diameters of inhibition zone, C. albicans ATCC 10231
Method: as §1

C. albicans ATCC 10231 [17] = assay: MIC determination, C. albicans; type: cell-based, Candida albicans; conditions: serial dilutions, triplicate
Method: as §2

Row | MIC (S. aureus ATCC 6538 [8]) [µg/mL] | MIC (B. subtilis ATCC 6633 [9]) [µg/mL] | MIC (K. pneumoniae ATCC 13883 [11]) [µg/mL] | melting point [°C] | SMILES | zone of inhibition at 20000 µg/mL (S. aureus ATCC 6538 [1]) [mm] | zone of inhibition at 20000 µg/mL (B. subtilis ATCC 6633 [2]) [mm] | zone of inhibition at 20000 µg/mL (B. cereus ATCC 6629 [3]) [mm] | zone of inhibition at 20000 µg/mL (K. pneumoniae ATCC 13883 [4]) [mm] | zone of inhibition at 20000 µg/mL (P. aeruginosa ATCC 27953 [5]) [mm] | % EPS inhibition (P. aeruginosa ATCC 27953 [6]; 1/4 MIC) [%] | % EPS inhibition (P. aeruginosa ATCC 27953 [6]; 1 MIC) [%] | % EPS inhibition (P. aeruginosa ATCC 27953 [6]; 2 MIC) [%] | viability at 5 mg/ml (Cell viability MTT assay) [%] | also measured
1 | – | – | – | – | O=C(O)c1cn(C2CC2)c2cc(N3CCNCC3)c(F)cc2c1=O [Ciprofloxacin, reference compound] | 23 ± 0.15 | 33 ± 0.2 | 29 ± 0.18 | 26 ± 0.17 | 35 ± 0.28 | 1.46 ± 0.28 | 8.98 ± 0.52 | 16.54 ± 0.61 | – | % EPS inhibition (P. aeruginosa ATCC 27953 [6]; 2 MIC, listed as ciprofloxacin): ~ 16%
2 | – | – | – | – | Nc1nc(-c2cccc(Br)c2)cc(-c2nc3ccccc3c(=O)[nH]2)n1 [IV] | – | – | – | – | – | – | – | – | – | IC50 [7]: 20.7 µM
3 | 15000 ± 500 (≈ 39700 µM) | 500 (≈ 1320 µM) | 500 (≈ 1320 µM) | 156 | O=c1c2ccccc2nc(CN2CCCC2)n1N=Cc1ccc([N+](=O)[O-])cc1 [Compound 20, 3-[(4-Nitrobenzylidene)amino]-2-(pyrrolidin-1-ylmethyl)quinazolin-4(3H)-one] | 13 ± 0.11 | 10 ± 0.12 | 16 ± 0.07 | 16 ± 0.09 | 21 ± 0.17 | 21.51 ± 3.26 | 47.84 ± 3.00 | 61.50 ± 2.83 | 88.1 ± 1.81 | MIC, B. subtilis ATCC 6633 (B. subtilis ATCC 6633 [9]): 500 ± 0 µg/mL (≈ 1320 µM); MIC (B. cereus ATCC 6629 [10]; Bacillus cereus, ATCC6629): 250 µg/mL (≈ 662 µM); MIC, B. cereus ATCC 6629 (B. cereus ATCC 6629 [10]): 250 ± 0 µg/mL (≈ 662 µM); MIC, K. pneumoniae ATCC 13883 (K. pneumoniae ATCC 13883 [11]): 500 ± 290 µg/mL (≈ 1320 µM); MIC (P. aeruginosa ATCC 27953 [12]; Pseudomonas aeruginosa, ATCC27953): 250 µg/mL (≈ 662 µM); MIC, P. aeruginosa ATCC 27953 (P. aeruginosa ATCC 27953 [12]): 250 ± 140 µg/mL (≈ 662 µM); IC50 (P. aeruginosa ATCC 27953 [13]): 6.86 µM and 2.59 µg/mL; effect on hydrophobicity index (CSH) (P. aeruginosa ATCC 27953 [14]): reduced hydrophobicity index; effect on twitching motility [15]: remarkably blocked
4 | 2000 ± 290 (≈ 6020 µM) | 2000 ± 290 (≈ 6020 µM) | 2000 (≈ 6020 µM) | 108 to 110 | O=c1c2ccccc2nc(CN2CCCC2)n1N=Cc1ccccc1 [Compound 15, 3-(Benzylideneamino)-2-(pyrrolidin-1-ylmethyl)quinazolin-4(3H)-one] | 12 ± 0.26 | 10 ± 0.33 | – | 13 ± 0.41 | – | – | – | – | 88.4 ± 0.91 | zone of inhibition at 20000 µg/mL (C. albicans ATCC 10231 [16]): 11 ± 0.11 mm; MIC (C. albicans ATCC 10231 [17]; Candida albicans, ATCC10231): 5000 µg/mL (≈ 15000 µM); MIC, C. albicans ATCC 10231 (C. albicans ATCC 10231 [17]): 5000 ± 290 µg/mL (≈ 15000 µM)
